18 compounds from US4650798A, “Antiarrhythmic 2,2-dialkyl-1-(aminoalkyl)-spiro[chroman-4,4'-imidazolidine]-2',5'-dione s” (priority 1984, dated 1987) can be followed below.

In data set [1] the test system is Chloroform-induced arrhythmia. Description: Chloroform-induced arrhythmia (mice). The settings on record: for minimal effective dose: Mus musculus, po, 1 h, read-out: Effective dose; for Lethal dose: peroral, mice. The procedure: (1) Chloroform-induced arrhythmia (mice):
Ventricular arrhythmia was caused experimentally in mice by the following method.
The mice were placed in a device filled with chloroform gas. After expiring, the ventricular pulse was counted from a record of an electrocardiogram. The antiarrhythmic activity of the test compound was determined based on its effect of relieving tachycardia. […] The compounds were tested by administration by two routes, i.e. peroral and intravenous injection. […] As comparative standard medicines, quinidine, disopyramide and phenytoin were employed. This method is taught in the publication, J. Pharmacol. Exp. Ther. 160,22 (1968), by J. W. Lawson.

A short description of data set [2]: Acute toxicity (rats), peroral. As to conditions: rat, in vivo, po. The text has this:
(3) Acute toxicity (rats):
The acute toxicity tests on rats (peroral administration) were effected using typical compounds of the present invention, i.e. 6-chloro-2,2-dimethyl-1'-[3-(4-hydroxypiperidino)propyl]spiro[chroman-4,4'-imidazolidine]-2',5'-dione (compound 1) and 2,2-dimethyl-6-fluoro-1'-[3-(4-hydroxypiperidino)propyl]-spiro[chroman-4,4'-imidazolidine]-2',5'-dione (compound 2).

Another data set deals with myocardia. Description: Contraction of the myocardia. As to conditions: dose several times as much as that required for the antiarrhythmic effects. An excerpt: This property is quite preferred when they are used as antiarrhythmic agents.

Consider `CCN(CC)CCN1C(=O)NC2(CC(C)(C)Oc3ccc(F)cc32)C1=O` (stereo not shown), for which, in data set [1], the minimal effective dose came out at 12.5 mg/kg and the Lethal dose amounted to 200 mg/kg.

`CC(C)N(CCN1C(=O)NC2(CC(C)(C)Oc3ccc(F)cc32)C1=O)C(C)C` (stereo not shown): in data set [1], the minimal effective dose was found to be 25 mg/kg and the Lethal dose is 200 mg/kg.

Regarding `CN(C)CCN1C(=O)NC2(CC(C)(C)Oc3ccc(F)cc32)C1=O` (stereo not shown), in data set [1], the minimal effective dose came to 50 mg/kg and the Lethal dose is listed as 400 mg/kg.

Take `CC1CC2(NC(=O)N(CCCN(C)C)C2=O)c2cc(Cl)ccc2O1` (stereo not shown): in data set [1], the minimal effective dose came out at 12.5 mg/kg and the Lethal dose worked out at 50 mg/kg.

`CCC1(CC)CC2(NC(=O)N(CCCN(C)C)C2=O)c2cc(Cl)ccc2O1` (stereo not shown): in data set [1], the minimal effective dose came out at 25 mg/kg and the Lethal dose is on record as 400 mg/kg.

As for `CC1(C)CC2(NC(=O)N(CCCN3CCC(O)CC3)C2=O)c2cc(Cl)cc(Cl)c2O1` (stereo not shown), in data set [1], the minimal effective dose worked out at 12.5 mg/kg and the Lethal dose came to 400 mg/kg.

`CC1(C)CC2(NC(=O)N(CCCN3CCC(c4ccccc4)CC3)C2=O)c2cc(F)ccc2O1` (stereo not shown): in data set [1], the minimal effective dose worked out at 50 mg/kg and the Lethal dose is reported as 200 mg/kg.

Regarding `CCC1(CC)CC2(NC(=O)N(CCCN3CCC(O)CC3)C2=O)c2cc(F)ccc2O1` (stereo not shown), in data set [1], the minimal effective dose stood at 25 mg/kg and the Lethal dose came out at 400 mg/kg.

With `COC1CCN(CCCN2C(=O)NC3(CC(C)(C)Oc4ccc(F)cc43)C2=O)CC1` (stereo not shown), in data set [1], the minimal effective dose was 25 mg/kg and the Lethal dose is recorded as 400 mg/kg.

Broadly, the LD50 is the dose at which mortality reaches 50%. Read a high LD50 as a less toxic substance. With `CC1(C)CC2(NC(=O)N(CCCN3CCC(O)CC3)C2=O)c2cc(Cl)ccc2O1` (stereo not shown) [Compound 1, 6-chloro-2,2-dimethyl-1'-[3-(4-hydroxypiperidino)propyl]spiro[chroman-4,4'-imidazolidine]-2',5'-dione], the values for the median lethal dose (LD50) in data set [2] (female rats) and in data set [2] (male rats) were 858 mg/kg and 930 mg/kg, respectively.

Regarding `CC1(C)CC2(NC(=O)N(CCCN3CCC(O)CC3)C2=O)c2cc(F)ccc2O1` (stereo not shown) [Compound 2, 2,2-dimethyl-6-fluoro-1'-[3-(4-hydroxypiperidino)propyl]-spiro[chroman-4,4'-imidazolidine]-2',5'-dione], the LD50 is 780 mg/kg in data set [2] (female rats) and 860 mg/kg in data set [2] (male rats).

In the case of `CC(C)N(CCC(C(N)=O)(c1ccccc1)c1ccccn1)C(C)C` (stereo not shown) [Disopyramide phosphate, reference compound], in data set [1], the minimal effective dose is 50 mg/kg and the Lethal dose is on record as 600 mg/kg.

As for `O=C1NC(=O)C(c2ccccc2)(c2ccccc2)N1` [Phenytoin sodium, reference compound], in data set [1], the minimal effective dose turned out to be 100 mg/kg and the Lethal dose is given as over 800 mg/kg.

In the case of `C=CC1CN2CCC1CC2C(O)c1ccnc2ccc(OC)cc12` (stereo not shown) [Quinidine sulfonate, reference compound], in data set [1], the minimal effective dose worked out at 200 mg/kg and the Lethal dose was 800 mg/kg.

Regarding `CC(C)N(CCC(C(N)=O)(c1ccccc1)c1ccccn1)C(C)C` (stereo not shown) [disopyramide], in the data set with myocardia, the “contraction power of the myocardia” value was “reduce the contraction power of the myocardia”.

Regarding `CC1(C)CC2(NC(=O)N(CCCN3CCC(O)CC3)C2=O)c2cc(Cl)ccc2O1` (stereo not shown) [drawing 12], in data set [1], the minimal effective dose came to 25 mg/kg and the Lethal dose is 400 mg/kg.

Take `CC1(C)CC2(NC(=O)N(CCCN3CCC(O)CC3)C2=O)c2cc(F)ccc2O1` (stereo not shown) [drawing 13]: in data set [1], the minimal effective dose stood at 25 mg/kg and the Lethal dose is on record as 400 mg/kg.

With `C=C[C@H]1C[N@@]2CC[C@H]1C[C@@H]2[C@@H](O)c1ccnc2ccc(OC)cc12` [quinidine], in the data set with myocardia, the “contraction power of the myocardia” value is recorded as “reduce the contraction power of the myocardia”.
